Results: PubChem BioAssay (NCI)
Where “and” joins values, the source holds several entries; their conditions need not be identical. Identical values can stand only once.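 48-hour exposure; five concentrations; linearly interpolated endpoints. Abbreviation: GI50, concentration required for 50% inhibition of growth. TGI: concentration producing complete growth inhibition.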

Experiments:
Assay in all cases: DTP human tumour cell line panel, 48 h
M14 melanoma = test system: M14 melanoma
MDA-MB-435 = test system: MDA-MB-435
HOP-62 NSCLC = test system: HOP-62 NSCLC
UO-31 renal = test system: UO-31 renal
MDA-N = test system: MDA-N
NCI-H460 lung = test system: NCI-H460 lung
NCI-H23 lung = test system: NCI-H23 lung
SW-620 colon = test system: SW-620 colon
OVCAR-5 ovarian = test system: OVCAR-5 ovarian
OVCAR-3 ovarian = test system: OVCAR-3 ovarian
SF-268 CNS = test system: SF-268 CNS
SNB-75 CNS = test system: SNB-75 CNS
A549 NSCLC = test system: A549 NSCLC
OVCAR-8 ovarian = test system: OVCAR-8 ovarian
RPMI-8226 leukemia = test system: RPMI-8226 leukemia
786-0 renal = test system: 786-0 renal
BT-549 breast = test system: BT-549 breast
T-47D breast = test system: T-47D breast
A498 renal = test system: A498 renal
SK-MEL-5 melanoma = test system: SK-MEL-5 melanoma
UACC-62 melanoma = test system: UACC-62 melanoma
CAKI-1 renal = test system: CAKI-1 renal
KM12 colon = test system: KM12 colon
NCI/ADR-RES ovarian = test system: NCI/ADR-RES ovarian
DU-145 prostate = test system: DU-145 prostate
SF-539 CNS = test system: SF-539 CNS
SN12C renal = test system: SN12C renal
SNB-19 CNS = test system: SNB-19 CNS
UACC-257 melanoma = test system: UACC-257 melanoma
HT29 colon = test system: HT29 colon
NCI-H226 lung = test system: NCI-H226 lung
RXF 393 renal = test system: RXF 393 renal
IGROV1 ovarian = test system: IGROV1 ovarian
MCF7 breast = test system: MCF7 breast
U251 CNS = test system: U251 CNS
SR leukemia = test system: SR leukemia
EKVX NSCLC = test system: EKVX NSCLC
OVCAR-4 ovarian = test system: OVCAR-4 ovarian
COLO 205 colon = test system: COLO 205 colon
SK-MEL-2 melanoma = test system: SK-MEL-2 melanoma
HCC-2998 colon = test system: HCC-2998 colon
ACHN renal = test system: ACHN renal
HCT-116 colon = test system: HCT-116 colon
MDA-MB-231 breast = test system: MDA-MB-231 breast
TK-10 renal = test system: TK-10 renal
HOP-92 NSCLC = test system: HOP-92 NSCLC
HCT-15 colon = test system: HCT-15 colon
SK-MEL-28 melanoma = test system: SK-MEL-28 melanoma
MOLT-4 leukemia = test system: MOLT-4 leukemia
SK-OV-3 ovarian = test system: SK-OV-3 ovarian
SF-295 CNS = test system: SF-295 CNS
PC-3 prostate = test system: PC-3 prostate
MALME-3M melanoma = test system: MALME-3M melanoma
K-562 leukemia = test system: K-562 leukemia
NCI-H522 lung = test system: NCI-H522 lung
CCRF-CEM leukemia = test system: CCRF-CEM leukemia
LOX IMVI melanoma = test system: LOX IMVI melanoma
HL-60(TB) leukemia = test system: HL-60(TB) leukemia

C=C(C(=O)OC)[C@H]1CC/C(C)=C/CC[C@@](C)(O)C=CC[C@@]2(C)O[C@@H]2C1
TGI (M14 melanoma): > 100 µM | TGI (MDA-MB-435): 46.1 µM | TGI (HOP-62 NSCLC): > 100 µM | TGI (UO-31 renal): 52.3 µM | TGI (MDA-N): > 100 µM | TGI (NCI-H460 lung): > 100 µM | TGI (NCI-H23 lung): 61 µM | TGI (SW-620 colon): > 100 µM | TGI (OVCAR-5 ovarian): > 100 µM | TGI (OVCAR-3 ovarian): 42.4 µM | TGI (SF-268 CNS): > 100 µM | TGI (SNB-75 CNS): > 100 µM | TGI (A549 NSCLC): > 100 µM | TGI (OVCAR-8 ovarian): 27 µM | TGI (RPMI-8226 leukemia): 41.5 µM | TGI (786-0 renal): 34.8 µM | TGI (BT-549 breast): > 100 µM | TGI (T-47D breast): > 100 µM | TGI (A498 renal): 87.2 µM | TGI (SK-MEL-5 melanoma): 20.1 µM | TGI (UACC-62 melanoma): > 100 µM | TGI (CAKI-1 renal): 50.2 µM | TGI (KM12 colon): > 100 µM | TGI (NCI/ADR-RES ovarian): 78.6 µM | TGI (DU-145 prostate): 84.1 µM | TGI (SF-539 CNS): 56.9 µM | TGI (SN12C renal): > 100 µM | TGI (SNB-19 CNS): > 100 µM | TGI (UACC-257 melanoma): > 100 µM | TGI (HT29 colon): 28.5 µM | TGI (NCI-H226 lung): > 100 µM | TGI (RXF 393 renal): > 100 µM | TGI (IGROV1 ovarian): > 100 µM | TGI (MCF7 breast): > 100 µM | TGI (U251 CNS): > 100 µM | TGI (SR leukemia): 33.8 µM | TGI (EKVX NSCLC): > 100 µM | TGI (OVCAR-4 ovarian): > 100 µM | TGI (COLO 205 colon): 31 µM | TGI (SK-MEL-2 melanoma): > 100 µM | TGI (HCC-2998 colon): > 100 µM | TGI (ACHN renal): > 100 µM | TGI (HCT-116 colon): 36.6 µM | TGI (MDA-MB-231 breast): > 100 µM | TGI (TK-10 renal): > 100 µM | TGI (HOP-92 NSCLC): 70.2 µM | TGI (HCT-15 colon): 73.6 µM | TGI (SK-MEL-28 melanoma): 41 µM | TGI (MOLT-4 leukemia): 31.9 µM | TGI (SK-OV-3 ovarian): > 100 µM | TGI (SF-295 CNS): > 100 µM | TGI (PC-3 prostate): > 100 µM

CCNC(=O)CCC(C)[C@H]1CCC2C3C(C[C@H](OC(C)=O)[C@@]21C)[C@@]1(C)CCC2(C[C@H]1C[C@H]3OC(C)=O)OOC1(CCC(C)CC1)OO2 (stereo partly drawn)
TGI (M14 melanoma): 43 µM and 5.24 µM | TGI (MDA-MB-435): 5.22 µM and 3.44 µM | TGI (HOP-62 NSCLC): 3.56 µM and 2.09 µM | TGI (UO-31 renal): 2.38 µM and 2.71 µM | TGI (MALME-3M melanoma): 6.1 µM and 3.92 µM | TGI (K-562 leukemia): > 100 µM | TGI (NCI-H522 lung): 3.7 µM and 3.07 µM | TGI (MDA-N): 10.3 µM and 3.92 µM | TGI (NCI-H23 lung): 9.01 µM and 5.24 µM | TGI (OVCAR-5 ovarian): > 100 µM | TGI (OVCAR-3 ovarian): 3.62 µM | GI50 (SF-268 CNS): 4.22 µM and 1.59 µM | TGI (SNB-75 CNS): 5.89 µM and 5.67 µM | TGI (A549 NSCLC): 8.28 µM and 4.02 µM | TGI (CCRF-CEM leukemia): 3.2 µM and 3.94 µM | GI50 (RPMI-8226 leukemia): 0.574 µM and 1.39 µM | TGI (RPMI-8226 leukemia): 2.64 µM and 3.81 µM | TGI (786-0 renal): 7.66 µM and 3.44 µM | TGI (BT-549 breast): 5.94 µM and 3.2 µM | TGI (T-47D breast): 5.18 µM and 3.84 µM | GI50 (A498 renal): > 100 µM and 25.6 µM | TGI (A498 renal): > 100 µM | TGI (SK-MEL-5 melanoma): 4.43 µM and 3.09 µM | TGI (UACC-62 melanoma): 10.8 µM and 6.15 µM | TGI (CAKI-1 renal): 3.93 µM and 2.24 µM | TGI (KM12 colon): 4.3 µM and 3.25 µM | TGI (DU-145 prostate): 3.22 µM and 6.19 µM | TGI (SF-539 CNS): 7.44 µM and 3.7 µM | TGI (SNB-19 CNS): > 100 µM and 24.4 µM | TGI (UACC-257 melanoma): > 100 µM and 96.3 µM | GI50 (HT29 colon): 1.19 µM and 3.04 µM | TGI (NCI-H226 lung): 9.4 µM and 3.85 µM | GI50 (RXF 393 renal): 9.58 µM and 3.18 µM | TGI (RXF 393 renal): > 100 µM and 16.5 µM | TGI (IGROV1 ovarian): 3.66 µM and 2.87 µM | TGI (MCF7 breast): > 100 µM | TGI (U251 CNS): 7.32 µM and 3.23 µM | TGI (SR leukemia): 3.32 µM | TGI (EKVX NSCLC): 2.69 µM | TGI (OVCAR-4 ovarian): 4.09 µM and 3.17 µM | TGI (COLO 205 colon): 3.18 µM and 3.2 µM | TGI (SK-MEL-2 melanoma): 3.91 µM and 3.21 µM | TGI (HCC-2998 colon): 7.3 µM and 3.87 µM | TGI (ACHN renal): 4.65 µM and 3.13 µM | TGI (HCT-116 colon): 6.01 µM and 4.28 µM | TGI (MDA-MB-231 breast): 6.13 µM | TGI (TK-10 renal): 6.74 µM and 5.13 µM | TGI (HOP-92 NSCLC): 7.31 µM and 3.38 µM | TGI (HCT-15 colon): 20.4 µM and 4.62 µM | TGI (SK-MEL-28 melanoma): > 100 µM and 17.4 µM | GI50 (MOLT-4 leukemia): 0.658 µM and 1.72 µM | TGI (MOLT-4 leukemia): 2.66 µM and 5.47 µM | TGI (LOX IMVI melanoma): 6.29 µM and 4.61 µM | TGI (HL-60(TB) leukemia): 3.74 µM and 4.85 µM | GI50 (PC-3 prostate): 0.716 µM and 2.06 µM | TGI (PC-3 prostate): > 100 µM and 11.4 µM
